For data set [1] the following is noted: human, plasma.
A short description of data set [2]: physchem. Conditions: buffer, pH 7.4.
Description: Distribution coeeficient for the compound at pH7.4 (Log D7.4)
Data set [3] is described as follows: physchem.
Description: pKa value of the compound

Turning to `CCCC(=O)Nc1ccc(OCC(O)CNC(C)C)c(C(C)=O)c1` (centres undefined) [ACEBUTOLOL], the “B(DPB)” value in data set [1] was 0%.
For the compound `NS(=O)(=O)c1cc(C(=O)O)c(NCc2ccco2)cc1Cl` [FUROSEMIDE], in data set [1], the “B(DPB)” value is reported as 87.2%.
As for `CN(Cc1cnc2nc(N)nc(N)c2n1)c1ccc(C(=O)N[C@@H](CCC(=O)O)C(=O)O)cc1` [METHOTREXATE], the log distribution coefficient (logD) (usually the decadic logarithm of the distribution of all forms, ionised or not, between an organic phase and buffer at a given pH) in “physchem [2]” is -2.52. Moreover, the “B(DPB)” value in data set [1] stood at 49.9%.
On to `COc1ccc2cc([C@H](C)C(=O)O)ccc2c1` [NAPROXEN], for which the “B(DPB)” value in data set [1] is over 95%.
In the case of `COC(=O)C1=C(C)NC(C)=C(C(=O)OCCN(C)Cc2ccccc2)C1c1cccc([N+](=O)[O-])c1` (centres undefined) [NICARDIPINE], the pKa (commonly the negative logarithm of the acid dissociation constant) in “physchem [3]” was found to be 7.17. In addition, the logD in the data set “physchem [2]” worked out at 4.25. The “B(DPB)” value in data set [1] amounted to 93.4%.
`CNC(=C[N+](=O)[O-])NCCSCc1ccc(CN(C)C)o1` [RANITIDINE]: the pKa in the data set “physchem [3]” stood at 8.48. In the data set “physchem [2]”, this compound yielded a log distribution coefficient (logD) of -0.48. For the same compound, the “B(DPB)” value in data set [1] came out at 3.9%.
Turning to `CN1C(C(=O)Nc2ccccn2)=C(O)c2sccc2S1(=O)=O` [TENOXICAM], in “physchem [3]”, the pKa came to 4.95. Further, the logD in “physchem [2]” is -0.32. Further, in data set [1], the “B(DPB)” value was determined as 89.6%.

For the origin of these results see ChEMBL document CHEMBL1138660, “Contribution of ionization and lipophilicity to drug binding to albumin: a preliminary step toward biodistribution prediction” (J Med Chem, 2004).
